Measurements: publication PMC9802118, “C25-modified rifamycin derivatives with improved activity against Mycobacterium abscessus” (PNAS Nexus, 2022)

Experiments:
ArrMsm = target: T1, ArrMsm (Mycolicibacterium smegmatis, UniProt A0QRS5); test: ITC (also nanoDSF; rpTLC ADP-ribosylation); type: binding
T1 construct: gene MSMEG_1221; purified wild-type enzyme, N-terminal His6 tag cleaved with C3 protease

ArrMab = target: T2, ArrMab (Mycobacteroides abscessus, UniProt B1MH05); test: ITC (also nanoDSF; rpTLC ADP-ribosylation); type: binding
T2 construct: gene MAB_0591; purified wild-type enzyme, N-terminal His6 tag cleaved with C3 protease
T2 sequence (B1MH05 entry or part of it): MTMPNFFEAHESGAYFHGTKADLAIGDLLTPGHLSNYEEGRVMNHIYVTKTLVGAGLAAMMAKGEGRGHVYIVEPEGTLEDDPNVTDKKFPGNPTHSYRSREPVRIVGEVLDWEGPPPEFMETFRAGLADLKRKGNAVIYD

T1 sequence (A0QRS5 entry or part of it): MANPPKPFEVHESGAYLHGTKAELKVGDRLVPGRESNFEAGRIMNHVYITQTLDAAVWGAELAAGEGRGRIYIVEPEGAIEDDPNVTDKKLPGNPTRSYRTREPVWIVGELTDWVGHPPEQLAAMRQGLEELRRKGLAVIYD

Structure (SMILES): CO[C@H]1/C=C/O[C@@]2(C)Oc3c(C)c(O)c4c(O)c(c(/C=N/N5CCN(C)CC5)c(O)c4c3C2=O)NC(=O)/C(C)=C\C=C\[C@H](C)[C@H](O)[C@@H](C)[C@@H](O)[C@@H](C)[C@H](OC(C)=O)[C@@H]1C [RMP, Rifampicin]
- Kd (ArrMsm): 290 ± 20 nM
- Kd (ArrMab): 4800 ± 3 nM
